Laboratory results as given in patent publication US11623925B2, “Processes for preparing a diaminopyrimidine derivative or acid addition salt thereof” (YUHAN CORPORATION, priority 2018, dated 2023).
Where a name gives a salt, the structure may show the parent alone.

Key:
[1] = Stability tests: storage at 60° C. and 75% RH for 2 weeks, HPLC analysis; type: physicochemical; conditions: for change in the HPLC purity / change in the amount of deacetylated impurities: 2 weeks, in words
Protocol: (S)-N-(1-(2-((4-amino-3-nitrophenyl)amino)-6-propylpyrimidin-4-yl)pyrrolidin-3-yl) acetamide hydrochloride prepared according to WO 2012/115480 (Amorphous form, Test compound 1) and the crystalline form A of (S)-N-(1-(2-((4-amino-3-nitrophenyl)amino)-6-propylpyrimidin-4-yl)pyrrolidin-3-yl)acetamide hydrochloride prepared in Example 7 (Test compound 2) were stored under the conditions of 60° C. and 75% RH for 2 weeks. The amounts of each test compound and the deacetylated impurities were analyzed with HPLC so as to measure the respective HPLC purities.

[2] = Storage of the amorphous hydrochloride at room temperature; type: physicochemical; conditions: stored at room temperature; in words
Protocol: In addition, WO 2012/115480 has disclosed the step for converting the compound of Formula 1 to a hydrochloride thereof. The converting step comprises reacting the compound of Formula 1 with hydrochloric acid in ethyl acetate, stirring at room temperature for 1 hour, and then filtering the product. It has been found by the present inventors that the hydrochloride of the compound of Formula 1 obtained by said method is in the amorphous form and brings about the problem producing deacetylated impurities in high level when stored at room temperature.

CCCc1cc(N2CC[C@H](NC(C)=O)C2)nc(Nc2ccc(N)c([N+](=O)[O-])c2)n1.Cl [Test compound 1, (S)-N-(1-(2-((4-amino-3-nitrophenyl)amino)-6-propylpyrimidin-4-yl)pyrrolidin-3-yl) acetamide hydrochloride]
change in the HPLC purity [1]: marked decrease
change in the amount of deacetylated impurities [1]: marked increase
HPLC purities, Compound ([1]; Storage time: 1 week): 95.5%
HPLC purities, Deacetylated impurities ([1]; Storage time: 1 week): 3.78%
HPLC purities, Compound ([1]; Storage time: 2 weeks): 86.6%
HPLC purities, Deacetylated impurities ([1]; Storage time: 2 weeks): 12.7%
HPLC purities, Compound ([1]; Storage time: Initial): 98.7%
HPLC purities, Deacetylated impurities ([1]; Storage time: Initial): 0.58%
deacetylated impurities produced on storage [2]: high level

CCCc1cc(N2CC[C@H](NC(C)=O)C2)nc(Nc2ccc(N)c([N+](=O)[O-])c2)n1 [Test compound 2, (S)-N-(1-(2-((4-amino-3-nitrophenyl)amino)-6-propylpyrimidin-4-yl)pyrrolidin-3-yl)acetamide hydrochloride]
change in the HPLC purity [1]: no significant change
change in the amount of deacetylated impurities [1]: no significant change
HPLC purities, Compound ([1]; Storage time: 1 week): 99.6%
HPLC purities, Deacetylated impurities ([1]; Storage time: 1 week): 0.07%
HPLC purities, Compound ([1]; Storage time: 2 weeks): 99.6%
HPLC purities, Deacetylated impurities ([1]; Storage time: 2 weeks): 0.07%
HPLC purities, Compound ([1]; Storage time: Initial): 99.6%
HPLC purities, Deacetylated impurities ([1]; Storage time: Initial): 0.08%
